Experimental data reported in ChEMBL document CHEMBL1151283, “Bis(bibenzyls) from liverworts inhibit lipopolysaccharide-induced inducible NOS in RAW 264.7 cells: a study of structure-activity relationships and molecular mechanism” (J Nat Prod, 2005).
The source made the active and inactive calls. No cut-off for these calls is given here.

Assays:
Format in all cases: functional, cell-based
RAW264.7 [1] = test: Inhibition of LPS-induced nitric oxide production in mouse RAW264.7 cells pretreated 1 hr before LPS challenge after 24 hrs by Griess reagent method
RAW264.7 [2] = test: Inhibition of iNOS mRNA expression in mouse RAW264.7 cells […] by RT-PCR analysis
RAW264.7 [3] = test: Inhibition of LPS-induced iNOS mRNA expression in mouse RAW264.7 cells […] by RT-PCR analysis

| IC50 (RAW264.7 [1]) [µM] | SMILES | Activity (RAW264.7 [2]) | Activity (RAW264.7 [3]) |
| --- | --- | --- | --- |
| 49.9 | COc1cccc(CCc2ccc(O)c(Oc3ccc(CCc4cccc(O)c4)cc3)c2)c1 |  |  |
| > 100 | Oc1ccc2cc1Oc1ccc(cc1)CCc1cccc(c1)Oc1c(O)cccc1CC2 [ISOMARCHANTIN C] |  |  |
| > 100 | Oc1ccc2c(c1)CCc1ccc(O)c(c1)-c1cc(ccc1O)/C=C\c1cccc(c1)O2 [ISOPLAGIOCHIN A] |  |  |
| > 100 | Oc1ccc2cc1-c1cc(ccc1O)CCc1c(ccc(O)c1O)Oc1cccc(c1)/C=C\2 [ISOPLAGIOCHIN B] |  |  |
| 14.3 | Oc1ccc2c(c1)CCc1ccc(O)c(c1)-c1cc(ccc1O)CCc1ccc-2c(O)c1 [ISOPLAGIOCHIN D] |  |  |
| 42.5 | COc1cccc2c1Oc1cccc(c1)CCc1cc(OC)c(OC)c(c1)Oc1ccc(cc1)CC2 [MARCHANTIN A TRIMETHYL ETHER] |  |  |
| 1.44 | Oc1cc2cc(c1O)Oc1ccc(cc1)CCc1cccc(O)c1Oc1cccc(c1)CC2 [MARCHANTIN A] | inactive | Dose-dependent effect |
| 4.1 | Oc1cc2cc(c1O)Oc1ccc(cc1)CCc1ccc(O)c(O)c1Oc1cccc(c1)CC2 [MARCHANTIN B] |  |  |
| 10.2 | Oc1ccc2cc1Oc1cccc(c1)CC(O)c1cc(O)c(O)c(c1)Oc1ccc(cc1)CC2 (stereo not given) [MARCHANTIN D] |  |  |
| 62.2 | COC1Cc2cccc(c2)Oc2c(O)cccc2CCc2ccc(cc2)Oc2cc1cc(O)c2O (stereo not given) [MARCHANTIN E] |  |  |
| 15.3 | Oc1ccc2cc1Oc1ccc(cc1)CCc1cc(O)c(O)c(c1)Oc1cccc(c1)CC2 [MARCHANTIN H] |  |  |
| 7.42 | Oc1cccc(CCc2ccc(Oc3cc(CCc4cccc(O)c4)cc(O)c3O)cc2)c1 [PERROTETTIN F] |  |  |
| 9.07 | COc1cc2c(cc1O)-c1ccc(O)cc1CCc1cc(O)c(O)c(c1)Oc1ccc(cc1)CC2 [PLAGIOCHIN A] |  |  |
| > 100 | Oc1ccc2c(c1)/C=C/c1ccc(O)c(c1)Oc1ccc(cc1)CCc1cccc(c1)O2 [PTYCHANTOL A] |  |  |
| > 100 | Oc1ccc2c(c1)CCc1ccc(cc1)Oc1cc(ccc1O)CCc1ccc-2c(O)c1 [RICCARDI C] |  |  |
| 5 | COc1ccc2cc1Oc1ccc(cc1)CCc1cc(O)ccc1-c1ccc(cc1O)CC2 [RICCARDI F] |  |  |
| 2.5 | COc1ccc2c(c1)CCc1ccc(cc1)Oc1cc(ccc1O)CCc1ccc-2c(O)c1 [RICCARDIN A] |  |  |

| SMILES | IC50 (RAW264.7 [1]) [µM] | Activity (RAW264.7 [2]) | Activity (RAW264.7 [3]) |
| --- | --- | --- | --- |
| COc1cc2cc(c1OC)Oc1ccc(cc1)CCc1ccc(OC)c(OC)c1Oc1cccc(c1)CC2 [MARCHANTIN B TETRAMETHYL ETHER] | 42.5 |  |  |
